Reference: patent US20090137572A1, “2-substituted-4-heteroaryl-pyrimidines useful for the treatment of proliferative disorders” (priority 2004, published 2009)

How the values were obtained:
GSK3b = GSK3b (Homo sapiens, UniProt P49841); test: Kinase assay (radioactive phosphate incorporation), GSK-3b; type: biochemical; conditions: read-out: Kinase Inhibition pIC50 GSK-3b (converted)
Description: (§1) Kinase assays. The compounds of the invention above were investigated for their ability to inhibit the enzymatic activity of various protein kinases (Table 2). This was achieved by measurement of incorporation of radioactive phosphate from ATP into appropriate polypeptide substrates. Recombinant protein kinases and kinase complexes were produced or obtained commercially. Assays were performed using 96-well plates and appropriate assay buffers (typically 25 mM β-glycerophosphate, 20 mM MOPS, 5 mM EGTA, 1 mM DTT, 1 mM […], pH 7.4), into which were added 2-4 μg of active enzyme with appropriate substrates. The reactions were initiated by addition of Mg/ATP mix (15 mM MgCl2+100 μM ATP with 30-50 kBq per well of [γ-^32P]-ATP) and mixtures incubated as required at 30° C. Reactions were stopped on ice, followed by filtration through p81 filterplates or GF/C filterplates (Whatman Polyfiltronics, Kent, UK). After washing 3 times with 75 mM aq orthophosphoric acid, plates were dried, scintillant added and incorporated radioactivity measured in a scintillation counter (TopCount, Packard Instruments, Pangbourne, Berks, UK). Compounds for kinase assay were made up as 10 mM stocks in DMSO and diluted into 10% DMSO in assay buffer.

CDK4-cyclin D1 = CDK4-cyclin D1 (Homo sapiens, UniProt P11802); test: Kinase assay (radioactive phosphate incorporation), CDK4-cyclin D1; type: biochemical; conditions: read-out: Kinase Inhibition pIC50 CDK4-cyclin D1 (converted)
CDK4-cyclin D1, sequence (P11802 whole entry): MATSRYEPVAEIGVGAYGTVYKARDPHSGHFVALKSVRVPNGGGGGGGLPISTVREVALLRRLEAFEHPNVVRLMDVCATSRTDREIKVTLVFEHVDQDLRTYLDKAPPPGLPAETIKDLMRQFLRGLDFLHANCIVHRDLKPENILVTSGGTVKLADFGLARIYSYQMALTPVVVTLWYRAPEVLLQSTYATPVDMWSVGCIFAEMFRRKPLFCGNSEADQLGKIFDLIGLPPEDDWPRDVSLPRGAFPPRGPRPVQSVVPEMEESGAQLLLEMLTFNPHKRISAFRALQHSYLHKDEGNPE
CDK4-cyclin D1, sequence (P24385 whole entry partner): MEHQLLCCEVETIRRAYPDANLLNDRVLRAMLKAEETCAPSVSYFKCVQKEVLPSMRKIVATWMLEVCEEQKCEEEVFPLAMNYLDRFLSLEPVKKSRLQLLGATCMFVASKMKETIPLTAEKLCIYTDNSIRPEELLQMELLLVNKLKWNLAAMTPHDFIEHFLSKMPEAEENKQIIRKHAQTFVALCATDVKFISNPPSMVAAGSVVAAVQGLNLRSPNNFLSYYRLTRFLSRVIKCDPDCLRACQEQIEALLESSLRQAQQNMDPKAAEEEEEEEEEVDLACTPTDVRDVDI
Description: as §1

CDK7/cyclin H = CDK7/cyclin H (Homo sapiens, UniProt P50613); test: CDK 7 assay (CTD peptide substrate); type: biochemical; conditions: read-out: Kinase Inhibition pIC50 CDK7-cyclin H (converted)
CDK7/cyclin H, sequence (P50613 whole entry): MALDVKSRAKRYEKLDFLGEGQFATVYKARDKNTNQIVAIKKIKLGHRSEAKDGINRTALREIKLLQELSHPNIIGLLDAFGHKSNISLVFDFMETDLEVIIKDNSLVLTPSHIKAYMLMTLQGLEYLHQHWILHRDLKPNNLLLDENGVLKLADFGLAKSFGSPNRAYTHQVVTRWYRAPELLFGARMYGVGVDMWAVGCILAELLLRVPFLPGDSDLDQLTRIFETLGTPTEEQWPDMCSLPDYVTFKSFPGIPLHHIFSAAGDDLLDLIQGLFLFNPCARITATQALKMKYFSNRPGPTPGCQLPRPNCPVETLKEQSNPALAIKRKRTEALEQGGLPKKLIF
CDK7/cyclin H, sequence (P51946 whole entry partner): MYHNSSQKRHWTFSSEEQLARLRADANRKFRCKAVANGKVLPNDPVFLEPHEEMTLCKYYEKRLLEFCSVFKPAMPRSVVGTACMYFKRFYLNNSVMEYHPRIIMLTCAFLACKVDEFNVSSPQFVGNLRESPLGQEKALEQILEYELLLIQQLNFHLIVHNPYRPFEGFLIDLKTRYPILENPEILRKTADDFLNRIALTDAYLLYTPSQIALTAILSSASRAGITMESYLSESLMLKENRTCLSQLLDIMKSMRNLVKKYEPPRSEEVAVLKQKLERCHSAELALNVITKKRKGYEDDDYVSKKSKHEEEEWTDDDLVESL
How it was run: (§2)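 Inhibition measured against recombinant human kinase/cyclin complex phosphorylating biotin-(Tyr-Ser-Pro-Thr-Ser-Pro-Ser)4 peptide, 100 μM radiolabelled ATP, 45 min at 30° C. Product quantified by filter capture and scintillation counting.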

CDK1-cyclin B = CDK1-cyclin B (Homo sapiens, UniProt P06493); test: Kinase assay (radioactive phosphate incorporation), CDK1-cyclin B; type: biochemical; conditions: read-out: Kinase Inhibition pIC50 CDK1-cyclin B (converted)
CDK1-cyclin B, sequence (P06493 whole entry): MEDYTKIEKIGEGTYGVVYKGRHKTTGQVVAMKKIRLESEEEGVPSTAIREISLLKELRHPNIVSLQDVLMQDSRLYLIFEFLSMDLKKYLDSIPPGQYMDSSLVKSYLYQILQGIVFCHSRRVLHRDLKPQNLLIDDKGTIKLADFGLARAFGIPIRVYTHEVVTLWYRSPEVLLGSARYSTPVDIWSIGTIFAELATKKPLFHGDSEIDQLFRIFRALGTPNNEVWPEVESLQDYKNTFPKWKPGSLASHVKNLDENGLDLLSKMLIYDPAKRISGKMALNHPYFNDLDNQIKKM
CDK1-cyclin B, sequence (P14635 whole entry partner): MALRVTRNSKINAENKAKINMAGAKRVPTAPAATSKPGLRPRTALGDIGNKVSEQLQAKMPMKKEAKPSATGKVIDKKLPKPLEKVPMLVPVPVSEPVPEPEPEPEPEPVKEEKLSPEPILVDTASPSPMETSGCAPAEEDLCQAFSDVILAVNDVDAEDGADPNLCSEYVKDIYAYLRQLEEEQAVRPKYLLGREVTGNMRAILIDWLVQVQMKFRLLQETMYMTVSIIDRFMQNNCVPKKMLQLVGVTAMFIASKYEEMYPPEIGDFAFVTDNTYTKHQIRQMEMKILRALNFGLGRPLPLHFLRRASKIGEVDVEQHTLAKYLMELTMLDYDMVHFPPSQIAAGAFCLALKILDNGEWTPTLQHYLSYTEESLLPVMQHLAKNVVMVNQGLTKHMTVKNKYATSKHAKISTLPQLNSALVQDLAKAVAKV
Description: as §1

CDK9/cyclin T1 = CDK9/cyclin T1 (Homo sapiens, UniProt P50750); test: CDK 9 assay (CTD peptide substrate); type: biochemical; conditions: read-out: Kinase Inhibition pIC50 CDK9-cyclin T1 (converted)
CDK9/cyclin T1, sequence (P50750 whole entry): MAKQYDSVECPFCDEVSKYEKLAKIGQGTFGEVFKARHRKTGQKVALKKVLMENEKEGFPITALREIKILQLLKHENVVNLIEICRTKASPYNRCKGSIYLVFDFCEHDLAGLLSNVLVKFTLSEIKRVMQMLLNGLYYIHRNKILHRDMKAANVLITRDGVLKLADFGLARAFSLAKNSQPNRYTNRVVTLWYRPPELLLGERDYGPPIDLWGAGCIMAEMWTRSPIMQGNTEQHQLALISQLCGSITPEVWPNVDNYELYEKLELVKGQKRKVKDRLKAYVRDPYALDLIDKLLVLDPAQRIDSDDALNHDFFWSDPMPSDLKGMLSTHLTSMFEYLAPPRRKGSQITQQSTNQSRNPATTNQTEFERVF
CDK9/cyclin T1, sequence (O60563 whole entry partner): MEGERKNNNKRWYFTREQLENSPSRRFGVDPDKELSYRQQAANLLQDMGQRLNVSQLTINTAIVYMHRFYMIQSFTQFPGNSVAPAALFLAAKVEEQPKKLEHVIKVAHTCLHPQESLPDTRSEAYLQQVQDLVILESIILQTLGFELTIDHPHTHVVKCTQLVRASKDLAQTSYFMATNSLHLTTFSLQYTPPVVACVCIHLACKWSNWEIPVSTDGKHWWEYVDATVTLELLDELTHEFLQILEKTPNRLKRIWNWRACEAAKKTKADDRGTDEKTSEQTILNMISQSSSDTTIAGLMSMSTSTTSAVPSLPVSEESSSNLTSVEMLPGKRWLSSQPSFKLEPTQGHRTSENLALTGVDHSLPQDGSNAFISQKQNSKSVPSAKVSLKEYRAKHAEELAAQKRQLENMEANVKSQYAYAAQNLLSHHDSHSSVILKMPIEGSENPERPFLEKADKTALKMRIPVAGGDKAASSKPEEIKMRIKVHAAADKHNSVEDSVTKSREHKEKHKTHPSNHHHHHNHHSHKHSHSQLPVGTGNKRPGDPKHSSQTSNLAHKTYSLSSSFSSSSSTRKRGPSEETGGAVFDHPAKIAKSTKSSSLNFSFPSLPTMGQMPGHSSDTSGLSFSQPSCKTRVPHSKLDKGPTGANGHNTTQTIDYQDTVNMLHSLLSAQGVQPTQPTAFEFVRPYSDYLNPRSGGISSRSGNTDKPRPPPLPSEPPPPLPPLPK
How it was run: as §2

CDK2-cycline E = CDK2-cycline E (Homo sapiens, UniProt P24941); test: Kinase assay (radioactive phosphate incorporation), CDK2-cyclin E; type: biochemical; conditions: read-out: Kinase Inhibition pIC50 CDK2-cycline E (converted)
How it was run: (§3)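 Each recombinant kinase was combined with its polypeptide substrate in pH 7.4 assay buffer. Mg/ATP mix carrying [γ-32P]-ATP (100 μM ATP) was then added and the plate incubated at 30° C. After stopping on ice, the reaction was filtered, washed with 75 mM orthophosphoric acid, dried and counted.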

Aurora A kinase = molecular target: T1, Aurora A kinase (Homo sapiens, UniProt O14965); test: Aurora-A (human) kinase assay (Kemptide substrate); type: biochemical; conditions: pIC50 is -log(IC50, M); 15 μM ATP; read-out: Kinase Inhibition pIC50 Aurora A kinase (converted)
T1 construct: purchased
T1 sequence (O14965 1-403): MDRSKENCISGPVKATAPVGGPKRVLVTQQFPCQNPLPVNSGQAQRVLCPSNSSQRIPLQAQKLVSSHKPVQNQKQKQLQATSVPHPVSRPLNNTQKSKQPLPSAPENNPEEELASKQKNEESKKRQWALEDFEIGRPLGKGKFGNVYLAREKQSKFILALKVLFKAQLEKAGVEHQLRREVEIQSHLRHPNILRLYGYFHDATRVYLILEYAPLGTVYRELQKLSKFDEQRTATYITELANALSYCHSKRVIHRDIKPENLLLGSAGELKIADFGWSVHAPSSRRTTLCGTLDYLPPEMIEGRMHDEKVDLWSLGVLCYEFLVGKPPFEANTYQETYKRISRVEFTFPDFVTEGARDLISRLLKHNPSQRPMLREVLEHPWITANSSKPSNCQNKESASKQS
How it was run: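 Kemptide (LRRASLG, 200 μM) phosphorylation by 5-10 ng commercial aurora-A measured as [γ-33P] incorporation at 15 μM ATP with 10 mM Mg acetate, pH 7.0 MOPS buffer. Reaction ran 40 min at room temperature; acid-stopped, captured on P81 filters, scintillation read.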

[1] = molecular target: T2, Flt3 (FMS-like tyrosine kinase-3) (Homo sapiens, UniProt P36888); test: Kinase assay (radioactive phosphate incorporation), Flt3; type: biochemical; conditions: pIC50 is -log(IC50, M), read-out: Kinase Inhibition pIC50 Flt3 (converted)
T2 sequence (P36888 27-993): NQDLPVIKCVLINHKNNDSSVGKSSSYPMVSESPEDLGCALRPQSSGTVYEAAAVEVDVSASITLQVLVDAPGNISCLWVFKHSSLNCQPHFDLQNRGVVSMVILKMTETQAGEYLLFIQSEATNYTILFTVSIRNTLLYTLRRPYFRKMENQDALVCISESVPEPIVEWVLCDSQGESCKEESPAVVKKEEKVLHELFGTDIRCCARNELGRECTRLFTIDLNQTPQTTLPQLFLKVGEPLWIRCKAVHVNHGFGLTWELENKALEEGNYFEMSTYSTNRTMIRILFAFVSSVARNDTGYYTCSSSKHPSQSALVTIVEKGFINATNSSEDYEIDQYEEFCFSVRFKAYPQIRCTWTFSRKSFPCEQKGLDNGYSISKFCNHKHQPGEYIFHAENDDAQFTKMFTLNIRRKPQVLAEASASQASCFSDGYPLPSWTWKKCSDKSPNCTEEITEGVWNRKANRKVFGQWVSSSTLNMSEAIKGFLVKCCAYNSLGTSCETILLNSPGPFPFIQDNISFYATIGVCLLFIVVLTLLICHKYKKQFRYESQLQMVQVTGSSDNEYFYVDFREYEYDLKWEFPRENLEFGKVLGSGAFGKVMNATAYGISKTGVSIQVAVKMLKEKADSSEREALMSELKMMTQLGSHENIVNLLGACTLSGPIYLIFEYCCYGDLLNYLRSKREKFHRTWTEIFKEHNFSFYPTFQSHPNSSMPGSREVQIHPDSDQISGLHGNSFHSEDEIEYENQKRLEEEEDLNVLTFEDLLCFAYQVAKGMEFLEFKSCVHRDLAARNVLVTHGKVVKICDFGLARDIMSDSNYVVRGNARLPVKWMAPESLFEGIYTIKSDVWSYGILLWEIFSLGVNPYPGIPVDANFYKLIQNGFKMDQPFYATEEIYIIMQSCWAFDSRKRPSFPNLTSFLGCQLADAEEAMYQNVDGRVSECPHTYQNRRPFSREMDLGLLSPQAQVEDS
How it was run: as §3

GSK3b, sequence (P49841 whole entry, species assumed): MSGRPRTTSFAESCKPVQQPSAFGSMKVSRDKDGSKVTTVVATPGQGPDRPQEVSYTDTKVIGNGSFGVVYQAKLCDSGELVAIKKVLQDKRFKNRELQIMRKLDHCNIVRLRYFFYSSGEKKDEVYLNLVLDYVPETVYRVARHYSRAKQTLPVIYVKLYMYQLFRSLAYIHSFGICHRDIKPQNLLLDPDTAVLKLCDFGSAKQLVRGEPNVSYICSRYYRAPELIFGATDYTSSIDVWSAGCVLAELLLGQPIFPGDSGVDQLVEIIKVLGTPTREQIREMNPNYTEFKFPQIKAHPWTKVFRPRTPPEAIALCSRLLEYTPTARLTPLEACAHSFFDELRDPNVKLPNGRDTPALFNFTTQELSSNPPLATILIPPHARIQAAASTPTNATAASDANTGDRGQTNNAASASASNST

SMILES	IC50 (GSK3b)	IC50 (CDK4-cyclin D1)	IC50 (CDK7/cyclin H)	IC50 (CDK1-cyclin B)	IC50 (CDK9/cyclin T1)	IC50 (CDK2-cycline E)	IC50 (Aurora A kinase)	IC50 [1]	melting point
CNc1nc(C)c(-c2ccnc(Nc3cccc(N4CCN(C(C)=O)CC4)c3)n2)s1 [Compound 3, 1-(4-{3-[4-(4-Methyl-2-methylamino-thiazol-5-yl)-pyrimidin-2-ylamino]-phenyl}-piperazin-1-yl)-ethanone]	5.01 µM	3.16 µM	2 µM	–	–	–	0.02 µM	0.02 µM	–
CNc1nc(C)c(-c2ccnc(Nc3cc(OC)c(OC)c(OC)c3)n2)s1 [Compound 23, [4-(4-Methyl-2-methylamino-thiazol-5-yl)-pyrimidin-2-yl]-(3,4,5-trimethoxy-phenyl)-amine]	0.794 µM	2 µM	0.794 µM	1 µM	0.02 µM	–	0.00398 µM	–	–
CNc1nc(C)c(-c2ccnc(Nc3ccc(S(N)(=O)=O)cc3)n2)s1 [Compound 34, 4-[4-(4-Methyl-2-methylamino-thiazol-5-yl)-pyrimidin-2-ylamino]-benzenesulfonamide]	1.26 µM	–	1 µM	–	–	–	0.0316 µM	0.316 µM	–
Cc1nc(NC(C)(C)C)sc1-c1ccnc(Nc2cccc([N+](=O)[O-])c2)n1 [Compound 51, [4-(2-tert-Butylamino-4-methyl-thiazol-5-yl)-pyrimidin-2-yl]-(3-nitro-phenyl)-amine]	0.631 µM	0.631 µM	–	1.58 µM	–	0.631 µM	0.1 µM	–	–
CNc1nc(C)c(-c2ccnc(Nc3cccc(S(=O)(=O)NCCOC)c3)n2)s1 [Compound 54, N-(2-Methoxy-ethyl)-3-[4-(4-methyl-2-methylamino-thiazol-5-yl)-pyrimidin-2-ylamino]-benzenesulfonamide]	0.631 µM	0.251 µM	0.794 µM	–	0.0398 µM	0.1 µM	0.0251 µM	0.251 µM	205 to 206 °C
COCCNc1nc(C)c(-c2ccnc(Nc3cccc(S(N)(=O)=O)c3)n2)s1 [Compound 83, 3-{4-[2-(2-Methoxy-ethylamino)-4-methyl-thiazol-5-yl]-pyrimidin-2-ylamino}-benzenesulfonamide]	0.794 µM	–	0.0501 µM	–	0.0158 µM	0.0251 µM	–	0.0398 µM	–
CCNc1nc(C)c(-c2ccnc(Nc3cccc(S(=O)(=O)NC(C)(C)CO)c3)n2)s1 [Compound 84, 3-[4-(2-Ethylamino-4-methyl-thiazol-5-yl)-pyrimidin-2-ylamino]-N-(2-hydroxy-1,1-dimethyl-ethyl)-benzenesulfonamide]	2.51 µM	–	1.58 µM	–	0.158 µM	0.631 µM	0.0251 µM	–	–
Cc1nc(C)c(-c2ccnc(Nc3cccc(CNC(=O)c4ccccn4)c3)n2)s1 [Compound 91, Pyridine-2-carboxylic acid 3-[4-(2,4-dimethyl-thiazol-5-yl)-pyrimidin-2-ylamino]-benzylamide]	3.98 µM	–	–	–	–	0.398 µM	0.794 µM	0.251 µM	–

More lines, now with the values ahead:

IC50 (GSK3b)	IC50 (CDK4-cyclin D1)	IC50 (CDK7/cyclin H)	IC50 (CDK1-cyclin B)	IC50 (CDK9/cyclin T1)	IC50 (CDK2-cycline E)	IC50 (Aurora A kinase)	IC50 [1]	melting point	SMILES
0.631 µM	0.316 µM	0.794 µM	1.26 µM	0.316 µM	1.58 µM	–	–	–	Cc1ccc(Nc2nccc(-c3sc(NC(C)(C)C)nc3C)n2)cc1[N+](=O)[O-] [Compound 2, [4-(2-tert-Butylamino-4-methyl-thiazol-5-yl)-pyrimidin-2-yl]-(4-methyl-3-nitro-phenyl)-amine]
1 µM	–	6.31 µM	–	0.0398 µM	0.316 µM	0.0251 µM	0.0794 µM	–	CNc1nc(C)c(-c2ccnc(Nc3ccc(C)c(Br)c3)n2)s1 [Compound 42, (3-Bromo-4-methyl-phenyl)-[4-(4-methyl-2-methylamino-thiazol-5-yl)-pyrimidin-2-yl]-amine]
3.16 µM	–	5.01 µM	12.6 µM	1 µM	–	–	0.2 µM	–	CC(=O)N1CCN(c2cccc(Nc3nccc(-c4sc(C)nc4C)n3)c2)CC1 [Compound 46, 1-(4-{3-[4-(2,4-Dimethyl-thiazol-5-yl)-pyrimidin-2-ylamino]-phenyl}-piperazin-1-yl)-ethanone]
5.01 µM	0.158 µM	–	–	0.1 µM	–	1 µM	–	–	CCNc1nc(C)c(-c2ccnc(Nc3cccc(S(=O)(=O)NC(C)C)c3)n2)s1 [Compound 70, 3-[4-(2-Ethylamino-4-methyl-thiazol-5-yl)-pyrimidin-2-ylamino]-N-isopropyl-benzenesulfonamide]
0.0251 µM	–	6.31 µM	–	–	3.16 µM	3.16 µM	–	215 to 216 °C	Cc1nc(N)sc1-c1ccnc(Nc2cccc(S(=O)(=O)N3CCOCC3)c2)n1 [Compound 81, [4-(2-Amino-4-methyl-thiazol-5-yl)-pyrimidin-2-yl]-[3-(morpholine-4-sulfonyl)-phenyl]-amine]
3.16 µM	–	3.98 µM	–	0.398 µM	3.98 µM	3.16 µM	–	81 to 83 °C	Cc1nc(C)c(-c2ccnc(Nc3ccc(C)c(S(=O)(=O)N4CCOCC4)c3)n2)s1 [Compound 82, [4-(2,4-Dimethyl-thiazol-5-yl)-pyrimidin-2-yl]-[4-methyl-3-(morpholine-4-sulfonyl)-phenyl]-amine]
